What all share (format): cell-based
In assay [1] the target is T1, human TLR7 (Homo sapiens, UniProt Q9NYK1).
T1 construct: host or cells: HEK-Blue cells (HEK293-derived reporter line)
T1 sequence (Q9NYK1 27-1049): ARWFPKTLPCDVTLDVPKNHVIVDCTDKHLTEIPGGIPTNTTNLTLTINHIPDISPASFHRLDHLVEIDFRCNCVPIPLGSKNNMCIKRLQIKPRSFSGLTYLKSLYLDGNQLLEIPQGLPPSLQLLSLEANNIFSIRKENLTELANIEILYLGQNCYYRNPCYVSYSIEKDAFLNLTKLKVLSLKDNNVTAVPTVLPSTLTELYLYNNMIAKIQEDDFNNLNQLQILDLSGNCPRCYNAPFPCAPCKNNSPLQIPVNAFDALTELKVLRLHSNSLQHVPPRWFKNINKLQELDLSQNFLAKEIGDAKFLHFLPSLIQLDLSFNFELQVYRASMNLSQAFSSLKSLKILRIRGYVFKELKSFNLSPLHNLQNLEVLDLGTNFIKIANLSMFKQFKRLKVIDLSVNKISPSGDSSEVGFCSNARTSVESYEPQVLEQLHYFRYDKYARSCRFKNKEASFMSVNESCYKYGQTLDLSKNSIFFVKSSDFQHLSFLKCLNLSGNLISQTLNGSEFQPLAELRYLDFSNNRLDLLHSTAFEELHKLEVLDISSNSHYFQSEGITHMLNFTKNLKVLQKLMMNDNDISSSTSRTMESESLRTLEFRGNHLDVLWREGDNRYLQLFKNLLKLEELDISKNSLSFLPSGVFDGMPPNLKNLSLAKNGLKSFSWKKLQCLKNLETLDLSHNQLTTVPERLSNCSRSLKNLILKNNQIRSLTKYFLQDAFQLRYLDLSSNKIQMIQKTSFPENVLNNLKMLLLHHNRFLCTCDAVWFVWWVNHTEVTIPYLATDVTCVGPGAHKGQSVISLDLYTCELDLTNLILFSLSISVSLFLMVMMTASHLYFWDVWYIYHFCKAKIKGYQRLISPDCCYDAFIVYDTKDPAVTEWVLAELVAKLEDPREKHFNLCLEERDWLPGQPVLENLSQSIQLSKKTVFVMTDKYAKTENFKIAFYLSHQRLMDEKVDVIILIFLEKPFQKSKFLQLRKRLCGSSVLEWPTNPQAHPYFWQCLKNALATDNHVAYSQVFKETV
As to the kind of experiment: TLR7 inhibition reporter assay (HEK-Blue SEAP). To be noted: HEK-Blue cells overexpressing human TLR7, gardiquimod 7.5 μM, 22 hour incubation. Here is the method:
(§1) TLR7/8/9 Inhibition Reporter Assays
(§2) HEK-Blue™-cells (Invivogen) overexpressing human TLR7, TLR8 or TLR9 receptors were used for screening inhibitors of these receptors using an inducible SEAP (secreted embryonic alkaline phosphatase) reporter gene under the control of the IFN-β minimal promoter fused to five NF-κB and AP-1-binding sites. Briefly, cells are seeded into Greiner 384 well plates (15000 cells per well for TLR7, 20,000 for TLR8 and 25,000 for TLR9) and then treated with test compounds in DMSO to yield a final dose response concentration range of 0.05 nM-50 μM. After a 30 minute compound pre-treatment at room temperature, the cells are then stimulated with a TLR7 ligand (gardiquimod at a final concentration of 7.5 μM), TLR8 ligand (R848 at a final concentration of 15.9 μM) or TLR9 ligand (ODN2006 at a final concentration of 5 nM) to activate NF-κB and AP-1 which induce the production of SEAP. After a 22 hour incubation at 37° C., 5% CO2, SEAP levels are determined with the addition of HEK-Blue™ Detection reagent (Invivogen), a cell culture medium that allows for detection of SEAP, according to manufacturer's specifications. The percent inhibition is determined as the % reduction in the HEK-Blue signal present in wells treated with agonist plus DMSO alone compared to wells treated with a known inhibitor.
Background: A reporter such as luciferase makes a cellular process visible.

Assay [2] deals with T2, human TLR9 (Homo sapiens, UniProt Q9NR96).
T2 construct: host or cells: HEK-Blue cells (HEK293-derived reporter line)
T2 sequence (Q9NR96 26-1032): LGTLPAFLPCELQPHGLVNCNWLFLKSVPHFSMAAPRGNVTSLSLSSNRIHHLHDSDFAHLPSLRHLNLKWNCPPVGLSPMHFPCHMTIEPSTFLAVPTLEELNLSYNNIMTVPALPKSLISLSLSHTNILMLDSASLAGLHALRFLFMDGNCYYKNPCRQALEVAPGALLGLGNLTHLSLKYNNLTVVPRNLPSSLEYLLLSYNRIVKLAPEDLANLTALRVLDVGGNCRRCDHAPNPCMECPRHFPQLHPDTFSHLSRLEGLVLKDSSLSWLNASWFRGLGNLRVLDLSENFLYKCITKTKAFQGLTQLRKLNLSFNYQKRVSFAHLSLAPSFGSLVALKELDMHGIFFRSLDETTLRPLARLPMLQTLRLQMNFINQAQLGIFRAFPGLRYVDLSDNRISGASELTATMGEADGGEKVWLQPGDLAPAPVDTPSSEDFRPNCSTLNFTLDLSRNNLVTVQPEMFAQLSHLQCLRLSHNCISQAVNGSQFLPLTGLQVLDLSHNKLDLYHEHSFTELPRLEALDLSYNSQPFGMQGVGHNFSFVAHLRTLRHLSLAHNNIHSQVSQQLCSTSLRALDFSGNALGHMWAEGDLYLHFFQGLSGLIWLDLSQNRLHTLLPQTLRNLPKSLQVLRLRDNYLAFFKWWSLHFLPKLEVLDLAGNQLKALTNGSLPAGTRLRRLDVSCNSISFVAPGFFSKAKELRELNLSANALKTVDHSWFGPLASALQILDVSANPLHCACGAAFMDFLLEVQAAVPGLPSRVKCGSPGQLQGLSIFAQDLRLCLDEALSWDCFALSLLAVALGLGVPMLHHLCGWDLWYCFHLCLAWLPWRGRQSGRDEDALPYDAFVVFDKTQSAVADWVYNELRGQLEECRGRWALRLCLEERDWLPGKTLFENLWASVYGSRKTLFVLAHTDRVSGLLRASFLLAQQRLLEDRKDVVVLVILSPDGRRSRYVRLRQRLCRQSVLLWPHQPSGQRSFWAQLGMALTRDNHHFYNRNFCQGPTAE
Description: TLR9 inhibition reporter assay (HEK-Blue SEAP). Conditions: HEK-Blue cells overexpressing human TLR9, ODN2006 5 nM, 22 hour incubation. Here is the method: as §1, §2

Assay [3] deals with T3, human TLR8 (Homo sapiens, UniProt Q9NR97).
T3 construct: host or cells: HEK-Blue cells (HEK293-derived reporter line)
T3 sequence (Q9NR97 27-1041): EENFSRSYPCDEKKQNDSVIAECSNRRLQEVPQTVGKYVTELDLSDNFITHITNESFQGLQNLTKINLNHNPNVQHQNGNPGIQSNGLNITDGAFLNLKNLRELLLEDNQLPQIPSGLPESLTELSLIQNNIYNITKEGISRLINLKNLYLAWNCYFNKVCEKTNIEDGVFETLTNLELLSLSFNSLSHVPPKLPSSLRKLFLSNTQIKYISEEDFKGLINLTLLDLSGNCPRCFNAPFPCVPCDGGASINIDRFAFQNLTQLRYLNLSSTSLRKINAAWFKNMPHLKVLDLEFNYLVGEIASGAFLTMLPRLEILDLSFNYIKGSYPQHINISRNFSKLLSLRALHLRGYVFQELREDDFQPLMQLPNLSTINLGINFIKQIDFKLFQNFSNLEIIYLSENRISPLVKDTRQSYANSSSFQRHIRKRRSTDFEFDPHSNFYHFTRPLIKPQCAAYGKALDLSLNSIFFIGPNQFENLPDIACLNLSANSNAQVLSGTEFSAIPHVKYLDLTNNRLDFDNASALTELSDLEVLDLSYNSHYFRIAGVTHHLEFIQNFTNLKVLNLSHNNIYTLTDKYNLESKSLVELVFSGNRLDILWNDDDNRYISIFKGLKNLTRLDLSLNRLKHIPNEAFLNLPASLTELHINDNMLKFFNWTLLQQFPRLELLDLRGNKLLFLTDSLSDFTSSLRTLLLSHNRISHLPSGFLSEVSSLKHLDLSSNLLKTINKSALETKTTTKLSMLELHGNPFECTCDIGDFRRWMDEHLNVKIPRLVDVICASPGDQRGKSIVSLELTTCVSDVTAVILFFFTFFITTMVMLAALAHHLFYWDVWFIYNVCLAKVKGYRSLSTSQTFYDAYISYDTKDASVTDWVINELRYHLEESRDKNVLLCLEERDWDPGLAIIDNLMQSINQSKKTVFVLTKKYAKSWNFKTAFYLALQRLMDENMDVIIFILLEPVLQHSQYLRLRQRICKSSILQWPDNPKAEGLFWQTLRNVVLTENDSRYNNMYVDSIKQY
Description: TLR8 inhibition reporter assay (HEK-Blue SEAP). To be noted: HEK-Blue cells overexpressing human TLR8, R848 15.9 μM, 22 hour incubation. The procedure: as §1, §2

As usually defined, the IC50 is the concentration at which inhibition is half-maximal. Read a low IC50 as greater potency. Turning to `COc1cc(-c2[nH]c3ccc(C4CCN(CCNC(=O)CCCCCCCCCCC(=O)NCCN5CCC(c6ccc7[nH]c(-c8cc(OC)c9ncnn9c8)c(C(C)C)c7c6)CC5)CC4)cc3c2C(C)C)cn2ncnc12` [Example 3, N1,N12-bis(2-(4-(3-isopropyl-2-(8-methoxy-[1,2,4]triazolo[1,5-a]pyridin-6-yl)-1H-indol-5-yl)piperidin-1-yl)ethyl)dodecanediamide], the IC50 stood at 0.31 nM in assay [1], 99 nM in assay [2] and 0.32 nM in assay [3].
On to `COc1cc(-c2[nH]c3ccc(C4CCN(CCNC(=O)CCCCCC(=O)NCCN5CCC(c6ccc7[nH]c(-c8cc(OC)c9ncnn9c8)c(C(C)C)c7c6)CC5)CC4)cc3c2C(C)C)cn2ncnc12` [Example 8, N1,N7-bis(2-(4-(3-isopropyl-2-(8-methoxy-[1,2,4]triazolo[1,5-a]pyridin-6-yl)-1H-indol-5-yl)piperidin-1-yl)ethyl)heptanediamide], for which the IC50 is 0.19 nM in assay [1], 175 nM in assay [2] and 0.28 nM in assay [3].
In the same order, the values of `COc1cc(-c2[nH]c3ccc(C4CCN(C(=O)CCCCCCCCCCCCCCCCCC(=O)N5CCC(c6ccc7[nH]c(-c8cc(OC)c9ncnn9c8)c(C(C)C)c7c6)CC5)CC4)cc3c2C(C)C)cn2ncnc12` [Comparator Compound C3, reference compound] are above 3130 nM, above 50000 nM and above 3130 nM.
On to `COc1cc(-c2[nH]c3ccc(C4CCN(CCCCCCCCCCCCCCCCCCN5CCC(c6ccc7[nH]c(-c8cc(OC)c9ncnn9c8)c(C(C)C)c7c6)CC5)CC4)cc3c2C(C)C)cn2ncnc12` [Example 12, 1,18-bis(4-(3-isopropyl-2-(8-methoxy-[1,2,4]triazolo[1,5-a]pyridin-6-yl)-1H-indol-5-yl)piperidin-1-yl)octadecane], for which the half-inhibitory concentration (IC50) in assay [1] came to 191 nM; in assay [2], 13400 nM; in assay [3], 509 nM.
Consider `COc1cc(-c2[nH]c3ccc(C4CCN(CCNC(=O)CCC(=O)NCCN5CCC(c6ccc7[nH]c(-c8cc(OC)c9ncnn9c8)c(C(C)C)c7c6)CC5)CC4)cc3c2C(C)C)cn2ncnc12` [Example 11, N1,N4-bis(2-(4-(3-isopropyl-2-(8-methoxy-[1,2,4]triazolo[1,5-a]pyridin-6-yl)-1H-indol-5-yl)piperidin-1-yl)ethyl)succinamide], for which the 50% inhibitory concentration (IC50) in assay [1] is 17 nM; in assay [2] it was 4600 nM; in assay [3], 143 nM.
Consider “N1,N12-bis(2-(4-(3-isopropyl-2-(8-methoxy-[1,2,4]triazolo[1,5-a]pyridin-6-yl)-1H-indol-5-yl)piperidin-1-yl)ethyl)dodecanediamide [Example 10]”, for which the results for the 50% inhibitory concentration (IC50) in assay [1], in assay [2] and in assay [3] were 1.3 nM, 44 nM and 1.1 nM, respectively.
The like results for `COc1cc(-c2[nH]c3ccc(C4CCN(CCNC(=O)CCCCCCC(=O)NCCN5CCC(c6ccc7[nH]c(-c8cc(OC)c9ncnn9c8)c(C(C)C)c7c6)CC5)CC4)cc3c2C(C)C)cn2ncnc12` [Example 6, N1,N8-bis(2-(4-(3-isopropyl-2-(8-methoxy-[1,2,4]triazolo[1,5-a]pyridin-6-yl)-1H-indol-5-yl)piperidin-1-yl)ethyl)octanediamide] were, in that order, 0.17 nM, 148 nM and 0.2 nM.
As to `COc1cc(-c2[nH]c3ccc(C4CCN(CCNC(=O)CCCCC(=O)NCCN5CCC(c6ccc7[nH]c(-c8cc(OC)c9ncnn9c8)c(C(C)C)c7c6)CC5)CC4)cc3c2C(C)C)cn2ncnc12` [Example 9, N1,N6-bis(2-(4-(3-isopropyl-2-(8-methoxy-[1,2,4]triazolo[1,5-a]pyridin-6-yl)-1H-indol-5-yl)piperidin-1-yl)ethyl)adipamide], the 50% inhibitory concentration (IC50) in assay [1] amounted to 0.19 nM; in assay [2] it was 348 nM; in assay [3] it was 0.59 nM.

The values above are taken from patent US11998537B2, “Substituted indole dimer compounds” (BRISTOL-MYERS SQUIBB COMPANY, priority 2018, dated 2024).
